In patent US5939387A, “Method of treating insulin resistance” (Eli Lilly and Company, priority 1996, dated 1999):
*: point of attachment. p‑methylhippuroyl = Cc1ccc(C(=O)NCC(=O)*)cc1

Assays:
[1] = system: Zucker Diabetic Fatty (ZDF/Gmi-fa/fa) male rats; test: ZDF Male Rat Assay; type: in vivo; details: for Total Body Mass, final weight / Epididymal Fat weight / Lean Mass, final weight: ZDF rats; for Total Body Mass, final weight: mean of 8; for Epididymal Fat weight / Lean Mass, final weight: 6 to 14 weeks of age
Text: A growth hormone releasing agent is continuously administered to Zucker diabetic male rats subcutaneously by use of an "Alzet" mini osmotic pump. The treatment was started at approximately 6 weeks of age and continued for approximately 6-8 weeks. The experiment was designed to allow the study of changes in the typical plasma glucose and insulin level profiles with the progression of the diabetic disease state.
Zucker Diabetic Fatty (ZDF/Gmi™-fa/fa) male rats were obtained from Genetic Models Inc. (Indianapolis, Ind.). The rats were maintained on Purina Formula 5008 rat chow (Purina Mills, Inc., St. Louis, Mo.) and housed in a light controlled room of alternating 12 hour cycles of light and dark. Rats were singly housed and given free access to food and water. At 5 weeks of age, an oral glucose tolerance test (OGTT: 16 hr fast, oral glucose concentration at 2.5 grams/kg body weight; Butler dextrose solution 50%, lot # 3342, Ft. Collins, Colo.; time points at 0, 30, 60, and 120 minutes) was given to each rat and their plasma assayed for glucose and insulin levels. At 6 weeks of age Alzet minipumps, containing a 1.5 inch polyethylene tube extensions (Model 2001, lot # 040401, 1.0 μl/hr, 7 days; Alza Corporation, Palo Alto, Calif.) were implanted subcutaneously. Animals were anesthetized with isoflurane at approximately 2-3% in oxygen. Each rat was shaved and a Povidone Iodine scrub was used at the site of implantation. A small incision was made above and just posterior to the shoulder. A small pocket was made and the pump placed in so the delivery port was away from the incision. The incision was then closed with wound clips and the rat observed and kept warm until awake. At the end of 7 days the pumps were removed from the rat and a new pump implanted subcutaneously as previously described. Pumps contained vehicle (PBS) or a growth hormone releasing agent (8 rats/group).
The GH releasing agent was prepared at concentrations of 625 and 62.5 μg/mL and loaded into Alzet pumps using sterile techniques. Body weight and food consumption were monitored once a week. Rats were bled from the tail for plasma glucose, insulin, and growth hormone levels weekly. One week prior to sacrificing the rats, an I.P. injection of tetracycline was given to each rat and then again the day before sacrificing (20 mg/mL; 0.5 mL/animal) to determine bone growth.
Assays: Plasma glucose concentrations were determined by the glucose hexokinase method (IL Test GLucose, lot # I1040502; Instrumentation Laboratory Company, Lexington, Mass.) with a model 2000 Monarch (Instrumentation Laboratory Company, Lexington, Mass.). Insulin was determined with a Coat-a-Count kit (Diagnostic Products Corporation, Los Angeles, Calif.) using a rat insulin standard (Lilly Research Laboratories, Indianapolis, Ind.). Glucagon was assayed with a double antibody procedure using guinea pig anti-glucagon (Catalog no. 1032; Linco Research, St. Louis, Mo.), goat anti-guinea pig (lot # T67-7GZ-237); Lilly Research Laboratories, Indianapolis, Ind.) and ^125 I-glucagon (DuPont New England Nuclear, Wilmington, Del.). Growth hormone was assayed using rat growth hormone standard (purchased from Parlow, Torrance Calif.; rGH-RP-2, lot AFP-3190B), anti rGH (purchased from Parlow, Torrance Calif.; rGH-s-r, lot AFP411S), ^125 I-rGH (Corning-Hazelton, Vienna, Va.) and protein A IGSL100 (Enzyme Center, Malden, Mass.).

[2] = system: Male Fischer 344 rats 26 months of age; test: Aged Rat Study (oral glucose tolerance test); type: in vivo; details: 2 μg/kg sc daily for 6 weeks
Experimental: Animals: Male Fischer 344 rats 26 months of age were randomly assigned to three treatment groups (8 animals per group). Animals were housed in individual cages in a temperature and humidity-controlled environment and exposed to 12 h light/12 h dark lighting schedule (lights on at 0600 h). Animals were fed ad libitum on a daily basis.
Treatments: Animals received daily injection (sc., 0.5 ml at 0700 h) of vehicle; active compound, 2 μg/kg body weight for six weeks. At the end of the treatment period and one day prior to testing, food was removed and animals were fasted for 16 hours. Glucose tolerance test was initiated at 0700 h in conscious and freely moving rats. Blood was collected by tail clipping method. A control blood sample (0.2 mL) was collected before ingesting glucose (2.5 g/kg body weight). Subsequent blood samples were collected at 30, 60, 90 and 120 min. after glucose ingestion. Blood was collected on ice and glucose concentrations were determined by bichromatic analysis using the IL Monarch Chemistry Systems (Cat. # 35199, Instrumentation Laboratory, Mass.). Plasma was separated and samples were kept frozen (-20° C.) until assay for insulin concentrations using double antibody radioimmuonoassay. […]
Area under the response curve was calculated using the trapezoidal method and data were analyzed by ANOVA with Duncan's multiple range test.

[3] = age 6 weeks, 0.001 μg/min continuous infusion
[4] = age 6 weeks, 0.01 μg/min continuous infusion
[5] = age 7 weeks, 0.001 μg/min continuous infusion
[6] = age 7 weeks, 0.01 μg/min continuous infusion
[7] = age 8 weeks, 0.001 μg/min continuous infusion
[8] = age 8 weeks, 0.01 μg/min continuous infusion
[9] = age 9 weeks, 0.001 μg/min continuous infusion
[10] = age 9 weeks, 0.01 μg/min continuous infusion
[11] = age 10 weeks, 0.001 μg/min continuous infusion
[12] = age 10 weeks, 0.01 μg/min continuous infusion
[13] = age 11 weeks, 0.001 μg/min continuous infusion
[14] = age 11 weeks, 0.01 μg/min continuous infusion
[15] = age 12 weeks, 0.001 μg/min continuous infusion
[16] = age 12 weeks, 0.01 μg/min continuous infusion
[17] = age 13 weeks, 0.001 μg/min continuous infusion
[18] = age 13 weeks, 0.01 μg/min continuous infusion

p-methyl hippuroyl Leu(27) (1-44)OH hGHRH ({p‑methylhippuroyl}-YADAIFTNSYRKVLGQLSARKLLQDILSRQQGESNQERGARARL-OH) [GHRH Analog, functional analog of GHRH disclosed in EP 511 003, agent capable of stimulating growth hormone release]
Total Body Mass, final weight ([1]; 0.001 μg/min continuous sc infusion from 6 to 14 weeks of age): 327.06 g | Epididymal Fat weight ([1]; 0.001 μg/min infusion): 0.25 g | Lean Mass, final weight ([1]; 0.001 μg/min infusion): 327.06 g | Total Body Mass, final weight ([1]; 0.01 μg/min continuous sc infusion from 6 to 14 weeks of age): 388.16 g | Epididymal Fat weight ([1]; 0.01 μg/min infusion): 0.33 g | Lean Mass, final weight ([1]; 0.01 μg/min infusion): 388.16 g | Mean Plasma Glucose [1, 3]: 139.99 mg/dL | Mean Plasma Insulin [1, 3]: 9.81 ng/mL | Mean Plasma Glucose [1, 4]: 139.86 mg/dL | Mean Plasma Insulin [1, 4]: 11.21 ng/mL | Mean Plasma Glucose [1, 5]: 155.34 mg/dL | Mean Plasma Insulin [1, 5]: 23.91 ng/mL | Mean Plasma Glucose [1, 6]: 148.68 mg/dL | Mean Plasma Insulin [1, 6]: 24.76 ng/mL | Mean Plasma Glucose [1, 7]: 183.41 mg/dL | Mean Plasma Insulin [1, 7]: 27.33 ng/mL | Mean Plasma Glucose [1, 8]: 165.01 mg/dL | Mean Plasma Insulin [1, 8]: 26.81 ng/mL | Mean Plasma Glucose [1, 9]: 331.91 mg/dL | Mean Plasma Insulin [1, 9]: 21.11 ng/mL | Mean Plasma Glucose [1, 10]: 215.49 mg/dL | Mean Plasma Insulin [1, 10]: 24.23 ng/mL | Mean Plasma Glucose [1, 11]: 389.18 mg/dL | Mean Plasma Insulin [1, 11]: 20.18 ng/mL | Mean Plasma Glucose [1, 12]: 235.91 mg/dL | Mean Plasma Insulin [1, 12]: 27.85 ng/mL | Mean Plasma Glucose [1, 13]: 392.65 mg/dL | Mean Plasma Insulin [1, 13]: 20.98 ng/mL | Mean Plasma Glucose [1, 14]: 232.89 mg/dL | Mean Plasma Insulin [1, 14]: 30.05 ng/mL | Mean Plasma Glucose [1, 15]: 496.75 mg/dL | Mean Plasma Insulin [1, 15]: 21.48 ng/mL | Mean Plasma Glucose [1, 16]: 317.11 mg/dL | Mean Plasma Insulin [1, 16]: 36.45 ng/mL | Mean Plasma Glucose [1, 17]: 446.03 mg/dL | Mean Plasma Insulin [1, 17]: 16.29 ng/mL | Mean Plasma Glucose [1, 18]: 248.28 mg/dL | Mean Plasma Insulin [1, 18]: 29.92 ng/mL | Mean Plasma Glucose ([1]; age 14 weeks, 0.001 μg/min continuous infusion): 461.40 mg/dL | Mean Plasma Glucose ([1]; age 14 weeks, 0.01 μg/min continuous infusion): 229.36 mg/dL | Plasma Glucose, oral glucose tolerance test ([2]; time 0 min): 104.2 mg/dL | Plasma Insulin, oral glucose tolerance test ([2]; time 0 min): 1.26 ng/mL | Plasma Glucose, oral glucose tolerance test ([2]; time 30 min): 148.4 mg/dL | Plasma Insulin, oral glucose tolerance test ([2]; time 30 min): 1.64 ng/mL | Plasma Glucose, oral glucose tolerance test ([2]; time 60 min): 154.8 mg/dL | Plasma Insulin, oral glucose tolerance test ([2]; time 60 min): 1.92 ng/mL | Plasma Glucose, oral glucose tolerance test ([2]; time 120 min): 148.1 mg/dL | Plasma Insulin, oral glucose tolerance test ([2]; time 120 min): 1.41 ng/mL | AUC, area under the plasma glucose vs. time curve ([2]; trapezoidal method): 16,833.80 mg. min/dL | AUC, area under the plasma insulin vs. time curve ([2]; trapezoidal method): 196.25 ng·min/mL
